Results published in paper PMC11775380, “Discovery of Novel Nav1.7-Selective Inhibitors with the 1H-Indole-3-Propionamide Scaffold for Effective Pain Relief” (Research, 2025).

Tested on: native K+ current (Kv channels) in DRG neurons
Assay: Voltage-clamp recording of native K+ current in DRG neurons
Type: cell-based
Conditions: 10 μM; mouse DRG neurons
Description: To investigate the mechanism of action of WN2-R and facilitate animal model experiments, we used voltage-clamp recording to test the effects of WN2-R on the native Na^+-, K^+-, and Ca^2+-mediated currents in DRG neurons. […] Furthermore, the effects of WN2-R on membrane excitability were examined in small (<30 μm) DRG neurons from mice using current-clamp recordings.
DRG isolation and culture were performed according to our previous report. Briefly, C57BL/6 mice (weight 18 to 20 g, 6 to 8 weeks) were euthanized via cervical dislocation under anesthesia. Lumbar DRGs were isolated from the L4 to L5 segments of the lumbar spinal cord. The DRG neurons were subsequently dissociated through enzymatic digestion with collagenase (0.32 mg/ml) and trypsin (0.15 mg/ml) at 37 °C for 30 min, with intermittent shaking. After centrifugation at 800 rpm for 5 min at room temperature, the cells were seeded onto poly-L-lysine-coated coverslips and cultured in DMEM (Gibco) supplemented with 10% fetal bovine serum (Gibco). […]
For recording Nav currents of DRG neurons, the bath solution contains (in mM) 30 NaCl, 1 MgCl2, 1.8 CaCl2, 5 CsCl, 5 KCl, 25 D-glucose, 5 HEPES, 0.1 CdCl2, and TEA-Cl (pH 7.4 with NaOH), and the pipette solution contains (in mM) 135 CsCl, 10 NaCl, and 5 HEPES (pH 7.4 with CsOH). The Nav current program is recorded following the above method. […]

## Cc1ccc(Cn2cc([C@H](CC(=O)NCCN(C)C)c3ccc(F)cc3)c3ccccc32)cc1 [WN2-R]
  Effect on native K+ current: almost no effect
